Reference: US20130071897A1, “METHOD FOR CONTROLLING UNDESIRABLE BYPRODUCTS FORMATION CAUSED BY CONTAMINATING ORGANISMS IN THE PRODUCTION OF ETHANOL FROM SYNGAS” (COSKATA, INC., priority 2011, published 2013)
Where “and” joins values, the source holds several entries; their conditions need not be identical. Equal values may be shown once.

Experiments:
C. autoethanogenum = assay: Balch tube batch growth of homoacetogen C. autoethanogenum on fructose, optical density; assay type: cell-based; settings: added 21 h after inoculation
Procedure: These compounds were first tested to determine their effect on a known homoacetogen. Each compound was tested in a series of batch experiments to determine the growth response of a homoacetogen to the presence of the compound at varying concentrations. The batch experiments were all conducted by anoxically filling a Balch tube with 5 ml of a fermentation medium having the composition given in Tables 2 and 3. To expedite results, these batch experiments used fructose as the growth nutrient source for bacteria. Thus, the media included a 5 g/L of fructose.
Each tube was inoculated with 0.5 ml of the same strain of C. autoethanogenum bacteria seed culture inoculum. The tubes were maintained at a temperature of 37° C. Twenty one hours after the inoculation of the tube with the bacteria, the different crotonate derivatives from Table 1 were added to different tubes in the amounts indicated in Table 4 This was at a time of early to mid-log phase growth for the bacteria. Each fermentation of the bacteria in the media at the different concentration of crotonate derivatives were allowed to progress and were monitored to determine the bacteria growth at selected intervals of time varying from approximately 20 hours to 190 hours. Growth at the intervals was measured by reading the optical density (OD) of the fermentation liquid. Optical density was measured using a Spectronic Spec 20 (Thermo Spectronic) at a wavelength of 600 nm. The OD of the Balch tube culture was measured directly in the tube using absorbance mode on the Spec 20 machine. The machine was set to zero absorbance by first measuring and adjusting the setting to zero absorbance using media only as a blank. This process was repeated at each indicated time point throughout the experiment. The ability of a tube fermentation at a particular concentration of crotonate derivative to reach a predetermined optical density was recorded in Table 4. Table 4 indicates the presence of bacterial growth to an OD of approximately 2 or above with a “+”, and to an optical density in a range of 0.5 to 1.5 as a “+/−”, and indicates the failure of bacterial growth to reach an optical density of approximately 0.5 as a “−”.

[1] = system: Clostridium tyrobutyricum; assay: Balch tube batch growth of strict butyrogen Clostridium tyrobutyricum on fructose, optical density; assay type: cell-based; settings: added 21 h after inoculation
Procedure: Similar experiments were conducted to make a preliminary determination as to which of the crotonate and crotonate-like compounds would act as butyrogen retardants. For this purpose the selected compounds were tested again in a series of batch experiments to determine the growth response of butyrogens to the presence of the compound at varying concentrations. The batch experiments were all conducted by anoxically filling a 20 ml Balch tube with 5 ml of a fermentation medium having the composition given in Tables 2 and 3. The media included 0.5 v/v final concentration of a fructose substrate. For each of the crotonate concentrations tested, duplicate test tubes were prepared.
Each tube was inoculated with 0.5 ml seed culture inoculum of the strict butyrogen Clostridium tyrobutyricum. The tubes were maintained at a temperature of 37° C. Twenty one hours after the inoculation of the tube with the bacteria, the different compounds from Table 1 were added to different tubes in the amounts indicated in Table 6. This was at a time of early to mid-log phase growth for the bacteria. Each fermentation of the bacteria in the media at the different concentration of crotonate derivatives were allowed to progress and were monitored to determine the bacteria growth at selected intervals of time varying from approximately 20 hours to 54 hours. Growth at the intervals was measured by reading the optical density (OD) of the fermentation liquid. Optical density was measured as described in Example 1. The ability of a tube fermentation at a particular concentration of crotonate derivative to reach a predetermined optical density was recorded in Table 6. Table 6 indicates the presence of bacterial growth to an OD of approximately 1.8 or above with a “+”, and to an optical density in a range of 0.7 to 1.5 as a “+/−”, and indicates the failure of bacterial growth to reach an optical density of approximately 0.7 as a “−”.

acyl-CoA dehydrogenases = assay: In vitro acyl-CoA dehydrogenase ferrocenium assay with C. tyrobutyricum cell-free extract; assay type: biochemical; settings: 0.5 to 10 mM compound; rate of ferrocenium reduction at 300 nm
Procedure: Lehman, et al., in An Acyl-Coenzyme A Dehydrogenase Assay Utilizing the Ferricenium Ion, Analytical Biochemistry 186, pages 280-284 (1990), disclose an in vitro assay screening technique for acyl-CoA dehydrogenases for determining enzyme deficiencies in children. An adaptation of this technique was explored as a potential screening method for ascertaining potential butyrogen inhibitors. An aqueous assay liquor is prepared such that each 1 milliliter sample contains 50 mM of TrisHCl buffer (pH 7.6); 0.05 mM of butyryl-CoA; 5 micromoles of FAD (flavin adenine dinucleotide) and 0.4 mM of ferrocenium. Whole cells of C. tyrobutyricum are lysed and are added to the assay liquor. […] The abbreviation mM stands for millimolar. To assure metabolic consistency among the samples a master batch of C. tyrobutyricum is prepared and harvested at the early log growth stage (approximate O.D. of between about 0.5 and 0.7). The master batch fermentation broth is centrifuged and rinsed with 50 mM TrisHCl buffer (pH 7.6), centrifuged and reconstituted with 50 mM TrisHCl buffer (pH 7.6) to be 10 times more concentrated than the original master batch. Aliquots of about 0.5 milliliter are placed into cryogenic vials (about 1.8 milliliter capacity) and frozen at −80° C. until needed. When needed, a vial is placed in an anoxic Coy chamber and allowed to thaw to room temperature. Once thawed, the cells are added to a 15 mL centrifuge tube and diluted with 0.5 mL of a 2 mg/mL solution of lysozyme (purchased from Aldrich) in 50 mM Tris-HCl (final concentration of lysozyme is about 1 mg/mL). The centrifuge tube is inverted 5 times, removed from the Coy chamber and allowed to incubate at 37° C. for 30 minutes. […] The centrifuge tube is vortexed in the Coy chamber for about 30 seconds, removed from the chamber and centrifuged for 15 minutes at 4000 rpm and 4° C. The tube is returned to the chamber and the cell-free extract (supernatant) is used to prepare the above described samples. The samples are analyzed at various times by absorbance spectroscopy at 300 nm using a Thermo Scientific Evolution 300 UV/Vis spectrophotometer with a 7-cuvette carousel and Starna quartz cuvettes with a septum cap to determine the amount of reduction of ferrocenium. The sample is at laboratory temperature and is maintained under anaerobic conditions. Typically, the absorbance is measured over a period of about 10 to 20 minutes which is sufficient time for the absorbance to stop changing. A linear slope of the rate of change in absorbance during the period that the absorbance is changing is determined using Microsoft Excel® 2010 linear regression to generate a straight line from the data points. The more gradual the slope, the better inhibition because the enzyme is slower at reducing the ferrocenium in the assay sample. A dose-response curve is then determined for each compound by plotting the linear slope against the respective compound concentration. A linear slope is then determined for each compound using Microsoft Excel® 2010 linear regression to generate a straight line from the data points. The steeper the dose-response slope, the better the inhibition because the increased concentration of the compound causes more of a difference in enzyme activity. The dose-response slope generally has a broad standard of deviation due to experimental imprecision and slope determinations.

[2] = system: Clostridium tyrobutyricum; assay: Serum bottle batch fermentation of Clostridium tyrobutyricum on fructose, optical density; assay type: cell-based; settings: Table 17, duplicates A and B
Procedure: Ethyl 3-(trifluoromethyl)benzoate is evaluated in a series of batch fermentations to determine the growth response of butyrogens to the presence of this compound at varying concentrations. The batch fermentations are conducted by anoxically filling 100 mL serum bottles with 15 mL of media having the composition given in Tables 12 and 13. About 0.15 mL of a 50% w/w solution of fructose in water (final fructose concentration about 5 g/L) is provided in the bottles. Duplicate runs are conducted for each concentration.
(§1) Each bottle is inoculated with 1.5 mL of seed culture inoculum of the strict butyrogen Clostridium tyrobutyricum, which has an OD of about 0.40 (which upon a 10 times dilution provides a starting OD for the fermentation of about 0.04). The bottles are maintained at a temperature of 37° C. Two hours after inoculation of the bottles with the bacteria, the compound is added to different bottles as a solution in 50 μL of N-methylpyrrolidone in the amounts indicated in Table 15. The fermentation process is allowed to progress at 37° C. At selected intervals of time, bacterial growth is measured by reading the optical density (OD) of the fermentation liquid. Optical density is measured by anoxically removing an aliquot of fermentation liquid and adding it to a disposable cuvette. OD's ranging between 0.01 and 0.4 are measured directly, while OD's greater than 0.4 are measure after performing a 1/10 dilution with water.
In this example ethyl 4,4,4-trifluoro-3-(trifluoromethyl)crotonate and ethyl 3-trifluoromethyl-4-methoxybenzoate are evaluated by batch fermentation. The batch fermentations are conducted by anoxically filling 100 mL serum bottles with 15 mL of media having the composition given in Tables 12 and 13. About 0.15 mL of a 50% w/w solution of fructose in water (final fructose concentration about 5 g/L) is provided in the bottles. Duplicate runs are conducted for each concentration.
as §1, with “of about 0.42 (which upon” for “of about 0.40 (which upon”, “of about 0.042). The bottles” for “of about 0.04). The bottles”, “in Table 16 and 17. The fermentation” for “in Table 15. The fermentation”, “0.4 are measured after performing” for “0.4 are measure after performing”

[3] = system: Clostridium tyrobutyricum; assay: Butyric acid by gas chromatography in Clostridium tyrobutyricum batch fermentations; assay type: cell-based; settings: Table 19, duplicates A and B
Procedure: The concentration of butyric acid is determined by gas chromatography for several of the above samples at the stated points in time. The butyrate production is calculated based upon peak area calculations generated by the gas chromatograph. At 11 hours, the concentration of butyric acid for each of the controls is about 0.95 gram per liter, and the concentration of butyric acid for the samples containing 500 ppm of the inhibitor are about 0.6 gram per liter.
The concentration of butyric acid is determined by gas chromatography using the procedure set forth in Example 13. The control is reported only in Table 18.

CCOC(=O)/C=C/C(F)(F)F [E, ethyl 4,4,4-trifluorocrotonate]
Optical density valuation of C. autoethanogenum (C. autoethanogenum; 10 ppm(m)): + (bacterial growth to an OD of approximately 2 or above)
Optical density valuation of C. autoethanogenum (C. autoethanogenum; 100 ppm(m)): + (bacterial growth to an OD of approximately 2 or above)
Optical density valuation of C. autoethanogenum (C. autoethanogenum; 500 ppm(m)): + (bacterial growth to an OD of approximately 2 or above)
Optical density valuation of C. autoethanogenum (C. autoethanogenum; 1000 ppm(m)): + (bacterial growth to an OD of approximately 2 or above)
Optical density valuation of C. autoethanogenum (C. autoethanogenum; 5000 ppm(m)): − (failure of bacterial growth to reach an optical density of approximately 0.5)
Optical density valuation of C. autoethanogenum (C. autoethanogenum; 10000 ppm(m)): − (failure of bacterial growth to reach an optical density of approximately 0.5)
Optical density valuation of C. tyrobutyricum ([1]; 100 ppm(m)): + (bacterial growth to an OD of approximately 1.8 or above)
Optical density valuation of C. tyrobutyricum ([1]; 500 ppm(m)): + (bacterial growth to an OD of approximately 1.8 or above)
Optical density valuation of C. tyrobutyricum ([1]; 1000 ppm(m)): + (bacterial growth to an OD of approximately 1.8 or above)
Dose-Response Slope (acyl-CoA dehydrogenases): 6

CCOC(=O)c1ccc(OC)c(C(F)(F)F)c1 [ethyl 3-trifluoromethyl-4-methoxybenzoate]
O.D. Response ([2]; 5 mM, 0 Hours, added 2 h after inoculation): 0.42
O.D. Response ([2]; 5 mM, 2 Hours, added 2 h after inoculation): 0.11 and 0.12
O.D. Response ([2]; 5 mM, 4.5 Hours): 0.20 and 0.18
O.D. Response ([2]; 5 mM, 6 Hours): 0.16 and 0.10
O.D. Response ([2]; 5 mM, 24 Hours): 1.23 and 0.91
O.D. Response ([2]; 10 mM, 0 Hours, added 2 h after inoculation): 0.42
O.D. Response ([2]; 10 mM, 2 Hours, added 2 h after inoculation): 0.11
O.D. Response ([2]; 10 mM, 4.5 Hours): 0.24 and 0.23
O.D. Response ([2]; 10 mM, 6 Hours): 0.12 and 0.13
O.D. Response ([2]; 10 mM, 24 Hours): 1.22 and 1.19
Butyrate Production ([3]; 5 mM, 6 Hours): 0.19 grams per liter and 0.10 grams per liter
Butyrate Production ([3]; 10 mM, 2 Hours): 0.03 grams per liter
Butyrate Production ([3]; 10 mM, 4.5 Hours): 0.69 grams per liter and 0.67 grams per liter
Butyrate Production ([3]; 10 mM, 6 Hours): 0.11 grams per liter and 0.10 grams per liter
Butyrate Production ([3]; 10 mM, 24 Hours): 0.19 grams per liter and 0.17 grams per liter
